This is an account of results in US20230355596A1, “COMPOSITIONS AND METHODS OF USING NMDAR INHIBITORS AND KINASE INHIBITORS TO TREAT LIVER CANCER” (The University of Hong Kong, priority 2022, published 2023).

One assay concerns HCC organoids. The assay is described as follows: Limiting dilution spheroid formation assay on organoids. Type of assay: cell-based, human. The conditions noted are these: 20 μM ifenprodil and 8 μM sorafenib, 3 days. The method, then: Resuspended cells were cultured in DMEM/F12 (ThermoFisher Scientific) medium containing 0.25% methylcellulose (Sigma-Aldrich), 20 ng/ml EGF (Sigma-Aldrich), 10 ng/ml FGF (Sigma-Aldrich), 4 μg/ml insulin (Sigma-Aldrich), 1% B27 (ThermoFisher Scientific), and 1% antibiotic-antimycotic (ThermoFisher Scientific). Serial dilution of cells (5, 10, 20, 50, and 100 cells from the HCC cell lines and cells dissociated from the xenografts; 10, 20, 50, 100, 200 cells from the HCC organoids) were seeded onto a 96-well plate in 6 replicates for each dilution. Fresh medium was replenished every two days. The number of wells with spheroids formed were counted after a 10-day culture. The stem cell frequency was calculated using ELDA: Extreme Limiting Dilution Analysis (internet site bioinf.wehi.edu.au/software/elda/). In the data plots, the y-axis “fraction nonresponding” refers to the log proportion of number of cultures not responding to form spheroids, while the x-axis “dose (number of cells)” refers to the number of cells used in each culture. The slope of the line is the log-active cell fraction, representing the estimated active cell frequency in forming spheroids, and the dotted lines gives the 95% confidence interval.

For another assay, the system named is RIL-175 cells. The assay is described as follows: Lung metastasis model (tail vein injection). Type of assay: in vivo, mouse. The conditions noted are these: nude mice, 20 mg/kg ifenprodil, 28 mg/kg sorafenib, 10 days.
In assay [1] the test system is patient-derived xenografts. The assay is described as follows: Limiting dilution and serial transplantation into secondary mouse recipients. It counts as in vivo. On the procedure:
5×10^5 MHCC97L cells, 3.5×10^5 cells (for PDX1) and 1×10^5 cells (for PDX2) dissociated from HCC patient derived xenograft (PDX), were injected subcutaneously into the left flank of 4 to 5-week-old male BALB/c nude mice and NOD/SCID mice, respectively. 1×10^4 RIL-175 cells were injected into the right median lobe of the livers from 9 to 12-week-old male C57BL/6N mice. Size of subcutaneously xenografted tumors was measured by an external caliper and tumor volume was estimated by the equation: Volume=½ (Length×Width^2), where the length and width represent the largest and smallest diameters, respectively. Drug administration began when the subcutaneous tumor reached ˜0.05 cm3 in size or at day 5 post-injection (for RIL-175 cells), at which point mice were divided into four groups randomly for daily treatment with DMSO, ifenprodil (20 mg/kg/day, intraperitoneally), sorafenib (28 mg/kg/day, orally), or the combination. Ifenprodil and sorafenib were purchased from Selleckchem (#54091) and LC laboratories (#S-8502), respectively. The drug treatment was started after grouping, and lasted for 21 days. Tumor volume and body weight of each mouse were then measured every two days. The estimated tumor volume served as a guide for determining the day when the mice were sacrificed to take actual measurements on the resected tumors. The mice were sacrificed, and the tumor tissues were collected at the end of treatment. Part of the tumor tissues was snap-frozen in liquid nitrogen for protein extraction and immunoblot analysis. Part of the tissues was fixed in 4% paraformaldehyde (PFA) at room temperature for histological staining. The remaining tissues were dissociated into single cells for the limiting dilution spheroid formation assay. To evaluate the tumor-initiating and self-renewal abilities of the drug-treated tumors derived from MHCC97L cells and PDX1 in vivo, limiting dilution and serial transplantation assays were performed. 500, 1,000, 5,000, 10,000, 50,000 cells dissociated from the residual tumor tissues were injected subcutaneously into either flank of 4-5 week-old mice. No drug treatment was further applied. The mice were checked every two days, and tumor incidence and latency were recorded. To evaluate HCC metastases, 4×10^4 RIL-175 cells were injected through tail vein into 6- to 8-week-old male nude mice. Drug administration began at day 5 post-injection, and daily treatment with DMSO, ifenprodil (20 mg/kg/day, intraperitoneally), sorafenib (28 mg/kg/day, orally), or the combination was applied for 10 days before resection of lung tumors. At five and twelve days after the tail-vein injection, the mice were administered 100 mg/kg D-luciferin via peritoneal injection for bioluminescent imaging (using the PE IVIS Spectrum in vivo imaging system) to monitor the lung metastasis.
To determine the efficacy of the drug combination of IFEN and SOR in vivo, MHCC97L cell- and HCC patient-derived xenografts were implanted into mice. […] Briefly, HCC patient-derived xenograft was subcutaneously injected in NOD/SCID mice and treated with 20 mg/kg ifenprodil, 28 mg/kg sorafenib, or combination of ifenprodil and sorafenib, for 21 days. Protein lysates were collected from the resected tumors and analyzed by Western blot. […] Spheroid formation assay was performed on cells being harvested from the same residual xenografts to evaluate their self-renewal ability. […] Combined treatment of ifenprodil and sorafenib decreased the repropagation capability of HCC cells in vivo. Residual tumor cells were harvested from the drug(s)-treated patient-derived xenografts and 50,000, 10,000, 5,000, 1,000, and 500 cells were transplanted into secondary NOD/SCID mouse recipients (n=6 per group). Average tumor latency and incidence were recorded, and tumor-initiating cell frequency was calculated.

Assay [2] relates to MHCC97L-derived and patient-derived xenografts. The assay is described as follows: Western blot and immunohistochemistry of resected xenografts. Type of assay: in vivo, mouse. The conditions noted are these: HCC patient-derived xenograft PDX1. The method, then: 5×10^5 MHCC97L cells, 3.5×10^5 cells (for PDX1) and 1×10^5 cells (for PDX2) dissociated from HCC patient derived xenograft (PDX), were injected subcutaneously into the left flank of 4 to 5-week-old male BALB/c nude mice and NOD/SCID mice, respectively. 1×10^4 RIL-175 cells were injected into the right median lobe of the livers from 9 to 12-week-old male C57BL/6N mice. Size of subcutaneously xenografted tumors was measured by an external caliper and tumor volume was estimated by the equation: Volume=½ (Length×Width^2), where the length and width represent the largest and smallest diameters, respectively. Drug administration began when the subcutaneous tumor reached ˜0.05 cm3 in size or at day 5 post-injection (for RIL-175 cells), at which point mice were divided into four groups randomly for daily treatment with DMSO, ifenprodil (20 mg/kg/day, intraperitoneally), sorafenib (28 mg/kg/day, orally), or the combination. […] Tumor volume and body weight of each mouse were then measured every two days. […] The mice were checked every two days, and tumor incidence and latency were recorded. […]
Cells or homogenized tissues collected from xenografts were lysed by 2X RIPA lysis buffer supplemented with protease inhibitor cocktail (ProBlock™ Gold Mammalian, Goldbio), PhosSTOP (Roche), 1 mM Na3VO4, and 1 mM NaF. […] Supernatants were quantified using the Bradford assay (BioRad). […]
Background: A western blot detects proteins with antibodies after separation by electrophoresis.

The mark [3] stands for this setting: 50,000 cells transplanted, n=6 per group.
Setting [4] is: 50,000 cells transplanted, secondary NOD/SCID recipients.

Turning to `CC(C(O)c1ccc(O)cc1)N1CCC(Cc2ccccc2)CC1` (stereo not drawn) [Ifenprodil, ifenprodil], the “ability of HCC organoids to assemble tumor spheroids” value with HCC organoids was “not either drug alone”. For the same molecule, the “metastases of mouse HCC cells to form tumors in the lung” value in the assay with RIL-175 cells is given as “did not affect the metastases”. In addition, the Average tumor latency amounted to 33 days in assay [1] (500 cells transplanted); 28.33 days in assay [1] (1,000 cells transplanted); 31.33 days in assay [1] (5,000 cells transplanted); 21 days in assay [1] (10,000 cells transplanted); 24 days in assay [1] (setting [4]). Besides, the Tumor incidence in assay [1] (500 cells transplanted) is 4/6; in assay [1] (1,000 cells transplanted), 6/6; in assay [1] (5,000 cells transplanted), 6/6; in assay [1] (10,000 cells transplanted), 6/6; in assay [1] (setting [3]), 6/6. Moreover, the “tumor vasculature (CD31-positive vessels)” value in assay [2] is listed as “inhibited tumor vasculature”.

For the molecule `CNC(=O)c1cc(Oc2ccc(NC(=O)Nc3ccc(Cl)c(C(F)(F)F)c3)cc2)ccn1` [Sorafenib, sorafenib], in the assay with HCC organoids, the “ability of HCC organoids to assemble tumor spheroids” value is given as “not either drug alone”. Also, the “metastases of mouse HCC cells to form tumors in the lung” value with RIL-175 cells was “did not affect the metastases”. Moreover, the Average tumor latency in assay [1] (500 cells transplanted) came out at 34 days; in assay [1] (1,000 cells transplanted), 29 days; in assay [1] (5,000 cells transplanted), 21.67 days; in assay [1] (10,000 cells transplanted), 21.33 days; in assay [1] (setting [4]), 22.33 days. The Tumor incidence in assay [1] (500 cells transplanted) is 3/6; in assay [1] (1,000 cells transplanted), 6/6; in assay [1] (5,000 cells transplanted), 6/6; in assay [1] (10,000 cells transplanted), 6/6; in assay [1] (setting [3]), 6/6. Also, the “cancer stemness in the HCC mouse models after treatment” value in assay [1] (HCC mouse models) is “increased cancer stemness”. Moreover, the “tumor vasculature (CD31-positive vessels)” value in assay [2] is on record as “inhibited tumor vasculature”.
